In patent publication US9949979B2, “Use of inhibitors of the activity or function of PI3K” (NOVARTIS AG, priority 2011, dated 2018) one finds IC50 data, which are given here for 6 molecules.

Molecules are shown by their SMILES.

Assay [1] concerns the target PI3K delta (Homo sapiens, UniProt O00329). Put plainly: Enzymatic PI3K delta isoform inhibition (lipid kinase activity, Kinase-Glo). The assay is classed as biochemical. Further details: for the full-length p110-d subunit are generated and fused by overlapping PCR; His tag (C); made in house; host or cells: baculovirus; Tn5 (Trichoplusia ni) or TiniPro insect cells. The settings on record: Enzymatic Assay. On the procedure: (§1) 1 Determination of Enzymatic PI3K Alpha and PI3K Delta Isoform Inhibition
(§2) 1.1 Test of Lipid Kinase Activity
(§3) The kinase reaction is performed in a final volume of 50 μl per well of a half area COSTAR, 96 well plate. The final concentrations of ATP and phosphatidyl inositol in the assay are 5 μM and 6 μg/mL, respectively. The reaction is started by the addition of PI3 kinase, e.g. PI3 kinase δ.
(§4) p110δ. The components of the assay are added per well as follows: • 10 μl test compound in 5% DMSO per well in […]. • Total activity is determined by addition 10 μl of 5% vol/vol DMSO in the first 4 wells of column 1 and the last 4 wells of column 12. • The background is determined by addition of 10 μM control compound to the last 4 wells of column 1 and the first 4 wells of column 12. • 2 mL ‘Assay mix’ are prepared per plate: • 1.912 mL of HEPES assay buffer • 8.33 μl of 3 mM stock of ATP giving a final concentration of 5 μM per well • 1 μl of [^33P]ATP on the activity date giving 0.05 μCi per well • 30 μl of 1 mg/mL PI stock giving a final concentration of 6 μg/mL per well • 5 μl of 1 M stock MgCl2 giving a final concentration of 1 mM per well • 20 μl of the assay mix are added per well. • 2 mL ‘Enzyme mix’ are prepared per plate (x* μl PI3 kinase p110β in 2 mL of kinase buffer). The ‘Enzyme mix’ is kept on ice during addition to the assay plates. The volume of enzyme is dependent on the enzymatic activity of the batch in use. • 20 μl ‘Enzyme mix’ are added/well to start the reaction. • The plate is then incubated at room temperature for 90 minutes. • The reaction is terminated by the addition of 50 μl WGA-SPA bead (wheat germ agglutinin-coated Scintillation Proximity Assay beads) suspension per well. • The assay plate is sealed using TopSeal-S (heat seal for polystyrene microplates, PerkinElmer LAS [Deutschland] GmbH, Rodgau, Germany) and incubated at room temperature for at least 60 minutes. • The assay plate is then centrifuged at 1500 rpm for 2 minutes using the Jouan bench top centrifuge (Jouan Inc., Nantes, France). • The assay plate is counted using a Packard TopCount, each well being counted for 20 seconds.
(§5) The final concentrations of ATP and phosphatidyl inositol (PI) in the assay are 1 μM and 10 μg/mL, respectively. The reaction is started by the addition of ATP.
(§6) The components of the assay are added per well as follows:
(§7) IC50 is determined by a four parameter curve fitting routine that comes along with “excel fit”.
(§8) To start the reaction, 10 μl of 10 nM PI3 kinase and 5 μg/mL 1-alpha-phosphatidylinositol (PI) are added into each well followed by 10 μl of 2 μM ATP. The reaction is performed until approx 50% of the ATP is depleted, and then stopped by the addition of 20 μl of Kinase-Glo solution (Promega Corp., Madison, Wis., USA). The stopped reaction is incubated for 5 minutes and the remaining ATP is then detected via luminescence. IC50 values are then determined.
In general terms: Kinase-Glo reads ATP consumption through a luciferase reaction.

The target of assay [2] is T1, PI3K alpha (Homo sapiens, UniProt P42336).
T1 construct: His tag (C); made in house; host or cells: baculovirus; Tn5 (Trichoplusia ni) or TiniPro insect cells
The assay is described as follows: Enzymatic PI3K alpha isoform inhibition (lipid kinase activity, Kinase-Glo). The following applies: Enzymatic Assay. The assay is classed as biochemical. On the procedure:
as §1, §2, §3, §4, §5, §6, §7, §8

PI3K delta, sequence (O00329 with tags, fused parts or gaps limits assumed): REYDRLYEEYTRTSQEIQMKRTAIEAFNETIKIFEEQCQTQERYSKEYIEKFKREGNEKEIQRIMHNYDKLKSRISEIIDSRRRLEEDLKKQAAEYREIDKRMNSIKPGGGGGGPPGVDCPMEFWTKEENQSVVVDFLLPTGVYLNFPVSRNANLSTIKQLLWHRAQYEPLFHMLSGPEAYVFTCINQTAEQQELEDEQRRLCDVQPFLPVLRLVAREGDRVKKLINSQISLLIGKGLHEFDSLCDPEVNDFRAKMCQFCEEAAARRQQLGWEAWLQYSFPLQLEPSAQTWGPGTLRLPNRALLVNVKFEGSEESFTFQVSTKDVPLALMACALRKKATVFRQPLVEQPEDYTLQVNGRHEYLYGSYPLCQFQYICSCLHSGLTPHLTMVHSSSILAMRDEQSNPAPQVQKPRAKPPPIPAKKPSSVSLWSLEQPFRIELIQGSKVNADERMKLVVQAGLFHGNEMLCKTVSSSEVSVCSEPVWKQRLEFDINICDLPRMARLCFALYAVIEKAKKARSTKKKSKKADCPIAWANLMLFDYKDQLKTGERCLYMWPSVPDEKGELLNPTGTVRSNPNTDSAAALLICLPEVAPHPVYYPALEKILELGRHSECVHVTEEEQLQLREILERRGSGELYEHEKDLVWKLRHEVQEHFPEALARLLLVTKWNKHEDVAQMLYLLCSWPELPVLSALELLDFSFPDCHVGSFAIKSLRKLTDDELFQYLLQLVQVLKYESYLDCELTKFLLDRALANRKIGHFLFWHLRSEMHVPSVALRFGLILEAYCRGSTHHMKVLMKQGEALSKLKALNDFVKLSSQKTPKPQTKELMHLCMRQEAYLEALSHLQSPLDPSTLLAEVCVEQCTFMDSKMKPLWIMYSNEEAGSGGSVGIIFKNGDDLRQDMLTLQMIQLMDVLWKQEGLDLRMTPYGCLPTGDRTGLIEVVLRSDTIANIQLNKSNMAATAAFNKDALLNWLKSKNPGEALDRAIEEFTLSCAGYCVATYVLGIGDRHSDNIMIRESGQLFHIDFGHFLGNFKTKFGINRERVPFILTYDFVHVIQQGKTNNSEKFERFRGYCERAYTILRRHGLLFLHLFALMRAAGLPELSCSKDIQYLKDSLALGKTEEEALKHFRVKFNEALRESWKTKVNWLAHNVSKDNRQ
T1 sequence (P42336 with tags, fused parts or gaps limits assumed): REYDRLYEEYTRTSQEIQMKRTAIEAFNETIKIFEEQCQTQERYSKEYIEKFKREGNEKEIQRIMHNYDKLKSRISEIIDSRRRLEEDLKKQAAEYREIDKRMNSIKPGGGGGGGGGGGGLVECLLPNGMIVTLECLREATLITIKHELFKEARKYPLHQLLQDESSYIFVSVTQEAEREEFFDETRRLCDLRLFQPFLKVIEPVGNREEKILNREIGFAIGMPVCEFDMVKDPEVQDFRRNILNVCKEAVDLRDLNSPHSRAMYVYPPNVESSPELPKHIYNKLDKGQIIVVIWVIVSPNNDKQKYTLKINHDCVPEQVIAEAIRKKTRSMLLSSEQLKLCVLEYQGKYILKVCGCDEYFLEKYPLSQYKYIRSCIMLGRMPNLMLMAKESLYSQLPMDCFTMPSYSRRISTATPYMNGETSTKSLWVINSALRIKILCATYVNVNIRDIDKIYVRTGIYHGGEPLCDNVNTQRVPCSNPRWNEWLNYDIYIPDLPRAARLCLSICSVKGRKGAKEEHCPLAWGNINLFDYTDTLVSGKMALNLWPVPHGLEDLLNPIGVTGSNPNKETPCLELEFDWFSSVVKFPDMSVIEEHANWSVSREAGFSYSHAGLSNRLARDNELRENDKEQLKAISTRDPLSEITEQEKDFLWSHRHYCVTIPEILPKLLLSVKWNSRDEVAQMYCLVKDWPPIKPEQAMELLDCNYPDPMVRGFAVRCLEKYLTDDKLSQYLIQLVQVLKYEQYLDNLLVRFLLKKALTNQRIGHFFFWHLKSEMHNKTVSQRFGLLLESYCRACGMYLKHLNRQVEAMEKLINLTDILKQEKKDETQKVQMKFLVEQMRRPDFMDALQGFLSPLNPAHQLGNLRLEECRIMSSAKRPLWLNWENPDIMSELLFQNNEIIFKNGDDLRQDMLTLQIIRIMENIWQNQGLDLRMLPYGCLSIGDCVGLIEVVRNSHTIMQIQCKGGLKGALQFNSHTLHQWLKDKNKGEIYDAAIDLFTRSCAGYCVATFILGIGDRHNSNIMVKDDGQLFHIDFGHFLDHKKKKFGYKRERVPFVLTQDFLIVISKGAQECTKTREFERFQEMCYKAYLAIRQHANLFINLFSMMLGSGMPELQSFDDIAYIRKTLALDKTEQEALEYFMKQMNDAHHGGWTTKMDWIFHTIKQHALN

Consider `COc1ccc(-c2ccc3ncnc(-c4cccc(C(=O)N5CCNC(C)(C)C5)c4)c3c2)cn1` [88′], for which the IC50 (usually the concentration needed to halve the response being measured) in assay [1] is no more than 2.67 nM.

Regarding `COc1ccc(-c2ccc3ncnc(-c4cccc(C(=O)N5CCN(C)CC5)c4)c3c2)cc1S(=O)(=O)N1CCCC1` [22′, (3-{6-[4-Methoxy-3-(pyrrolidine-1-sulfonyl)-phenyl]-quinazolin-4-yl}-phenyl)-(4-methyl-piperazin-1-yl)-methanone], the IC50 in assay [2] came out at 790 nM; in assay [1], 11.5 nM. For `COc1ccc(-c2ccc3ncnc(-c4cccc(C(=O)N5CCN(C(C)=O)CC5)c4)c3c2)cc1C(F)(F)F` [9′], in that order: 1400 nM and 10 nM.

On to `Cc1ccc(-c2ccc3ncnc(-c4cccc(C(=O)N5CCN(C)CC5)c4)c3c2)cn1` [19′], for which the IC50 in assay [2] was 678 nM; in assay [1], 11.5 nM. For `CC1(C)CN(C(=O)c2cncc(-c3ncnc4ccc(-c5cnc(N)nc5)cc34)c2)CCO1` [65′], in that order: 640 nM and 10 nM. For `CC(=O)N1CCN(C(=O)c2cccc(-c3ncnc4ccc(-c5ccc(C)nc5)cc34)c2)CC1` [6′], in that order: 589 nM and 8.62 nM.
